In brackets after ≈: the same amount, converted by molar mass. Like-named read-outs stand apart in the source and are kept apart here.
Columns and labels:
E. Coli LeuRS = E. Coli LeuRS (Escherichia coli (strain K12), UniProt P07813); assay: Study 2 - Isothermal titration calorimetry (ITC); assay type: binding; conditions: 25° C., pH 7.5, mean ± SD
Description: Escherichia coli BL21(DE3) cells transformed with plasmid pQE-60 containing the open-reading frame sequence of one targeted aaRS (i.e., LeuRS) were induced with 1 mM IPTG (isopropyl β-D-1-thiogalactopyranoside) for 3 hours at 37° C. Bacterial cells were harvested and lysed with 20 mM HEPES (4-(2-hydroxyethyl)-1-piperazinylethane-sulfonic acid) (pH 7.5), 300 mM NaCl, 15 mM imidazole and 1 mM DTT (1,4-dithio-D-threitol). The pathogenic aaRS was first purified by nickel affinity standard chromatography. The eluted protein was concentrated and then further purified by gel filtration using 50 mM HEPES (pH 7.5), 150 mM NaCl buffer.
ITC studies were carried out using a Microcal ITC200 instrument (GE Healthcare). Protein concentration was determined by spectrophotometry by measuring the absorbance at 280 nm using a theoretical molar extinction coefficient of 169,140 M^−1cm^−1. Ligand stock solutions were prepared in DMSO at 62.5 mM concentration. The titrations were performed at 25° C. with 7.5-100 μM E. Coli LeuRS in 50 mM HEPES, 150 mM NaCl, pH 7.5 buffer containing 1% DMSO (v/v). The protein solution in the 280 μL sample cell was titrated with the inhibitor solution (diluted to 75-3000 μM in the same buffer as the protein) using 1-2 μL injections every 120-140 seconds. All titrations were repeated at least two times. To correct for heats of dilution and mixing, the final baseline consisting of small peaks of identical size at the end of each experiment was subtracted. The experimental data were fitted to a theoretical titration curve (one site model) using MicroCal Origin 7 SR4 software.
Note that Compounds R-4.1 and S-4.1 (in Table 15, below) correspond to Compounds V-i and V-ii (in Tables 13 and 14, above), respectively.

[1] = tested on: Acinetobacter baumannii B1931 clinical isolate; assay: Study 4 - MIC by broth micro-dilution (CLSI); assay type: cell-based; conditions: Acinetobacter baumannii
Description: (§1) Minimum Inhibitory Concentrations (MICs) were determined by the broth micro-dilution method performed according to Clinical Laboratory Standards Institute guidelines. For testing, 5 mg/mL DMSO solutions were prepared by dissolving solids in DMSO. Standard antibiotics were prepared according to CLSI guidelines as 5 mg/mL stock solutions. Upon DMSO stock solutions preparation, the working solutions in MH media were prepared by adding 38.4 μL of stock solution to 1461.6 μL of MH media. Out of these working solutions 100 μL were transferred to wells in the third column of 96-well assay plates. Assay plates were previously filled with 50 μL of MH media in all wells except for the wells in the third column. Upon compounds and antibiotics addition, 50 μL was transferred from the third to the fourth column, then from the fourth to the fifth and so on.
(§2) MIC value was determined by visual inspection of bacterial growth within 96-well plates. The first column in which there was no visible growth of bacteria was determined as MIC value for compound or antibiotic tested in that particular row. ATCC strains were used as reference strains for which there is a determined value of MIC values for standard antibiotics. The assay is considered valid when MIC values for standard antibiotics are within CLSI designated range for ATCC strain tested.

[2] = tested on: Enterobacter cloacae B1966 clinical isolate; assay: Study 4 - MIC by broth micro-dilution (CLSI); assay type: cell-based; conditions: Enterobacter cloacae
Description: as §1, §2

[3] = tested on: Escherichia coli ATCC 25922; assay: Study 4 - MIC by broth micro-dilution (CLSI); assay type: cell-based; conditions: Escherichia coli, ATCC25922
Description: as §1, §2

[4] = tested on: Haemophilus influenzae ATCC 49247; assay: Study 4 - MIC by broth micro-dilution (CLSI); assay type: cell-based; conditions: Haemophilus influenzae, ATCC49247
Description: as §1, §2

[5] = tested on: Klebsiella pneumoniae ATCC 700603; assay: Study 4 - MIC by broth micro-dilution (CLSI); assay type: cell-based; conditions: Klebsiella pneumoniae, ATCC700603
Description: as §1, §2

[6] = tested on: Pseudomonas aeruginosa ATCC 27853; assay: Study 4 - MIC by broth micro-dilution (CLSI); assay type: cell-based; conditions: Pseudomonas aeruginosa, ATCC27853
Description: as §1, §2

[7] = tested on: Escherichia coli ATCC 25922 TolC deficient mutant (E. coli EFFLUX del); assay: microbe, parasite or virus in culture; assay type: cell-based; conditions: Escherichia coli, ATCC25922
Description: as §1, §2

[8] = Human cell viability (cytotoxicity), ATP levels by CellTiter-Glo; assay type: cell-based; conditions: HepG2 cells (ATCC HB-8065), 24 hours incubation, read-out: IC50 (μg/mL), Cytotoxicity in HepG2 ATCC HB-8065 Cell Line
Description: Compounds were assessed for potential non-specific cytotoxic effects against a human hepatic cell line (HepG2 ATCC HB-8065). 96-well plates were seeded with HepG2 cells in concentration of 15,000 cells per well in 100 μL of MEM growth media completed with 1% NEAA and 1% sodium pyruvate. Border wells were filled with 100 μL of sterile PBS. Two days upon cells incubation, the compounds were added. Compound dilutions were prepared in 96-well V-bottom plate in pure DMSO. Growth media from 5 plates were aspirated and replaced with 98.7 μL of fresh growth media. 1.28 μL of compounds prepared in V-bottom plates were transferred with multichannel pipette into test plates (78.1× dilution). Final DMSO concentration was 1.28% per well. In control wells, 1.28 μL of DMSO was added in 98.7 μL of media. Compounds were tested in duplicates. Cells were incubated with compounds for 24 hours when cell viability was assessed by measuring ATP levels. ATP levels were measured by adding 50 μL of CellTiter-Glo reagent to each well and after 5 minutes of incubation luminescence was measured with SpectraMax i3. The potential effect of tested compounds on cell viability was determined by comparing the signal obtained in presence of different concentrations of the compounds with those obtained in the presence of DMSO only. The potential effects were then calculated and presented as IC50 values (μg/mL).

[9] = G = H. influenzae ATCC 49247, read-out: MIC

E. Coli LeuRS, sequence (P07813 whole entry): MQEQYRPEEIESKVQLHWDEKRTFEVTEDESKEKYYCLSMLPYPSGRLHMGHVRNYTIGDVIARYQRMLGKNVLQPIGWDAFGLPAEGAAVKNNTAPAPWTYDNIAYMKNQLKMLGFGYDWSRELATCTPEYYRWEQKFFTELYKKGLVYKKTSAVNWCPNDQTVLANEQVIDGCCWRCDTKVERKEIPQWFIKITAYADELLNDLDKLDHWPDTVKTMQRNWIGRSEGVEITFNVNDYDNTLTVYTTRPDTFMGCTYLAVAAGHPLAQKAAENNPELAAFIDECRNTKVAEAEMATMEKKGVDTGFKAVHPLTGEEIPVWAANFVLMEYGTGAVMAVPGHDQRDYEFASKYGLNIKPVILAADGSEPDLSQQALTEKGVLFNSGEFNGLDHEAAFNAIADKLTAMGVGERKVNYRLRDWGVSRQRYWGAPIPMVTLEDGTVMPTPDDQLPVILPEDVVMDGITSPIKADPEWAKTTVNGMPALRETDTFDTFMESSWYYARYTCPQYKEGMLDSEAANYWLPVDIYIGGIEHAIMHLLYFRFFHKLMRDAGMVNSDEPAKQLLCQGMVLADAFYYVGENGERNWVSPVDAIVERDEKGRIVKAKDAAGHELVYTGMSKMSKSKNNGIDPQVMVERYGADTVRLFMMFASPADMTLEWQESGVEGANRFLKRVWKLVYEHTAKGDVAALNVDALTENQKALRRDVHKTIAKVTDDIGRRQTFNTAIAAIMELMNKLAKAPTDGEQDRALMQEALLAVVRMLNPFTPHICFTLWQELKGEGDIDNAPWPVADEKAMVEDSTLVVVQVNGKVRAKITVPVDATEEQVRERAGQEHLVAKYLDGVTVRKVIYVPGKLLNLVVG

Row | Compound | Kd (E. Coli LeuRS) [nM] | ΔG (E. Coli LeuRS) [kcal/mol] | ΔH (E. Coli LeuRS) [kcal/mol] | MIC [1] [µg/mL] | MIC [2] [µg/mL] | MIC [3] [µg/mL] | MIC [4, 9] [µg/mL] | MIC [5] [µg/mL] | MIC [6] [µg/mL] | MIC [7] [µg/mL] | IC50 at 24 h [8] [µg/mL] | MIC [4] [µg/mL]
1 | CC(C)CC(N)C(=O)N[S+]([O-])c1cccc(C(F)(F)F)c1 (centres unmarked) [4.18] | 6.06 ± 0.49 | -11.20 ± 0.06 | -7.03 ± 0.14 | > 64 | > 64 | 64 (≈ 199 µM) | > 64 | > 64 | > 64 | 16 (≈ 49.6 µM) | > 64 | 
2 | CC(C)CC(N)C(=O)N[S+]([O-])c1cc(F)cc(F)c1 (centres unmarked) [4.35] | 16.4 ± 2.72 | -10.63 ± 0.10 | -9.97 ± 0.10 | > 64 | 64 (≈ 220 µM) | 16 (≈ 55.1 µM) | > 64 | > 64 | > 64 | 16 (≈ 55.1 µM) | > 64 | 
3 | COC(=O)c1cccc([S+]([O-])NC(=O)C(N)CC(C)C)c1 (centres unmarked) [4.21] | 6.61 ± 0.83 | -11.16 ± 0.07 | -8.23 ± 0.43 | > 64 | > 64 | 32 (≈ 102 µM) | > 64 | > 64 | > 64 | 32 (≈ 102 µM) | > 64 | 
4 | CC(C)C[C@H](N)C(=O)N[S@+]([O-])c1cccc(Cl)c1 [R-4.12] | 1.48 ± 0.08 | -11.96 ± 0.12 | -10.75 ± 1.06 | 32 (≈ 111 µM) | 8 (≈ 27.7 µM) | 2 (≈ 6.93 µM) | 8 (≈ 27.7 µM) | 32 (≈ 111 µM) | > 64 | 2 (≈ 6.93 µM) | > 64 | 
5 | CC(C)C[C@H](N)C(=O)N[S@@+]([O-])c1ccccc1 (single isomer, unassigned) [S-4.1] | 9130 ± 2720 | -6.89 ± 0.16 | -2.33 ± 0.13 | > 64 | > 64 | 64 (≈ 252 µM) | > 64 | > 64 | > 64 | 64 (≈ 252 µM) | > 64 | 
6 | CC(C)CC(N)C(=O)N[S+]([O-])c1ccccc1Cl (centres unmarked) [4.32] | 4.61 ± 0.06 | -11.37 ± 0.01 | -10.62 ± 0.25 | 16 (≈ 55.4 µM) | 16 (≈ 55.4 µM) | 4 (≈ 13.9 µM) | 32 (≈ 111 µM) | 16 (≈ 55.4 µM) | > 64 | 8 (≈ 27.7 µM) | > 64 | 
7 | CC(C)CC(N)C(=O)N[S+]([O-])c1cccc(OC(F)(F)F)c1 (centres unmarked) [4.20] | 1.39 ± 0.07 | -12.08 ± 0.03 | -11.64 ± 0.45 | > 64 | > 64 | 8 (≈ 23.6 µM) | 64 (≈ 189 µM) | > 64 | > 64 | 8 (≈ 23.6 µM) | > 64 | 
8 | CC(C)CC(N)C(=O)N[S+]([O-])c1cccc(F)c1F (centres unmarked) [4.34] | 288 ± 42.9 | -8.93 ± 0.08 | -9.90 ± 0.40 | 2 (≈ 6.89 µM) | 1 (≈ 3.44 µM) | 0.5 (≈ 1.72 µM) | 4 (≈ 13.8 µM) | 1 (≈ 3.44 µM) | 32 (≈ 110 µM) | 0.25 (≈ 0.861 µM) | > 64 | 
9 | CC(C)C[C@H](N)C(=O)N[S@+]([O-])c1ccccc1 (single isomer, unassigned) [R-4.1, 2,2,2-trifluoroacetate] | 3.86 ± 0.24 | -11.48 ± 0.04 | -11.92 ± 0.34 | 8 (≈ 31.5 µM) | 4 (≈ 15.7 µM) | 2 (≈ 7.86 µM) |  | 8 (≈ 31.5 µM) | 32 (≈ 126 µM) | 2 (≈ 7.86 µM) | > 64 | 16 (≈ 62.9 µM)
10 | CC(C)CC(N)C(=O)N[S+]([O-])c1ccccc1C#N (centres unmarked) [4.30] |  |  |  | 8 (≈ 28.6 µM) | 32 (≈ 115 µM) | 16 (≈ 57.3 µM) | 8 (≈ 28.6 µM) | 32 (≈ 115 µM) | 32 (≈ 115 µM) | 16 (≈ 57.3 µM) | 32.5 (≈ 116 µM) | 
11 | CNc1cccc([S+]([O-])NC(=O)C(N)CC(C)C)c1 (centres unmarked) [4.22] | 34.5 ± 0.76 | -10.17 ± 0.02 | -4.27 ± 0.19 | 32 (≈ 113 µM) | 32 (≈ 113 µM) | 16 (≈ 56.5 µM) | > 64 | 64 (≈ 226 µM) | > 64 | 16 (≈ 56.5 µM) | > 64 | 
12 | CC(C)CC(N)C(=O)N[S+]([O-])c1ccccc1F (centres unmarked) [4.31] | 6.78 ± 1.73 | -11.15 ± 0.16 | -12.97 ± 2.04 | 4 (≈ 14.7 µM) | 4 (≈ 14.7 µM) | 2 (≈ 7.34 µM) | 8 (≈ 29.4 µM) | 2 (≈ 7.34 µM) | 32 (≈ 117 µM) | 2 (≈ 7.34 µM) | > 64 | 
13 | C#Cc1cccc([S+]([O-])NC(=O)C(N)CC(C)C)c1 (centres unmarked) [4.27] | 3.69 ± 0.05 | -11.50 ± 0.00 | -8.71 ± 1.08 | > 64 | 8 (≈ 28.7 µM) | 4 (≈ 14.4 µM) | 16 (≈ 57.5 µM) | 32 (≈ 115 µM) | > 64 | 2 (≈ 7.18 µM) | > 64 | 
14 | C=Cc1cccc([S+]([O-])NC(=O)C(N)CC(C)C)c1 (centres unmarked) [4.16] | 27.2 ± 8.44 | -10.34 ± 0.19 | -4.89 ± 0.08 | 32 (≈ 114 µM) | 32 (≈ 114 µM) | 8 (≈ 28.5 µM) | 32 (≈ 114 µM) | > 64 | > 64 | 8 (≈ 28.5 µM) | > 64 | 
15 | CC(C)CC(N)C(=O)N[S+]([O-])c1ccc(F)cc1 (centres unmarked) [4.29] | 9.14 ± 0.3 | -10.96 ± 0.01 | -10.95 ± 0.18 | 16 (≈ 58.7 µM) | 16 (≈ 58.7 µM) | 8 (≈ 29.4 µM) | 32 (≈ 117 µM) | 64 (≈ 235 µM) | > 64 | 16 (≈ 58.7 µM) | > 64 | 
16 | CC(C)CC(N)C(=O)N[S+]([O-])c1cccc(-c2ccccc2)c1 (centres unmarked) [4.17] | 4.47 ± 0.04 | -11.39 ± 0.01 | -9.72 ± 0.22 | > 64 | > 64 | > 64 | > 64 | > 64 | > 64 | 64 (≈ 194 µM) | 47.7 (≈ 144 µM) | 

Source: patent US11802110B2, “2-amino-N-(arylsulfinyl)-acetamide compounds as inhibitors of bacterial aminoacyl-tRNA synthetase” (priority 2016, dated 2023)
